Results on 36 molecules are retold here after patent US20090197856A1, “ANTIVIRAL COMPOUNDS” (Genelabs Technologies, Inc., priority 2007, published 2009).

This assay deals with T1, NS5B (Hepatitis C virus genotype 1b, UniProt Q9WMX2).
T1 construct: 3 nM NS5B, 20 nM polyC RNA template
The assay is described as follows: Polymerase assay, incorporation of radiolabeled GTP with biotinylated oligoG13 primer and polycytidylic acid RNA template. As to conditions: polyC RNA template, biotin-oligoG13 primer, tritiated GTP, 3 nM NS5B, 30° C., 2 hours. In kind it is biochemical. The protocol: The polymerase activity was also assayed by measuring incorporation of radiolabeled GTP into an RNA product using a biotinylated oligoG13 primer with a polycytidylic acid RNA template. Typically, the assay mixture (40 μL) contains 50 mM HEPES (pH 7.3), 2.5 mM magnesium acetate, 2 mM sodium chloride, 37.5 mM potassium acetate, 5 mM DTT, 0.4 U/mL RNasin, 2.5% glycerol, 3 nM NS5B, 20 nM polyC RNA template, 20 nM biotin-oligoG13 primer, and 0.2 μM tritiated guanosine triphosphate. Test compounds were initially dissolved and diluted in 100% DMSO and further diluted into aqueous buffer, producing a final concentration of 5% DMSO. Typically, compounds were tested at concentrations between 0.2 nM and 10 μM. Reactions were started with addition of tritiated guanosine triphosphate and allowed to continue at 30° C. for 2 hours. Reactions were quenched with 100 μL stop buffer containing 10 mM EDTA and 1 μg/mL streptavidin-coated scintillation proximity beads. Reaction plates were incubated at 4° C. for 10 hours and then incorporation of radioactivity was determined by scintillation counting. The table below lists the IC50 values of compounds determined using this procedure.

T1 sequence (Q9WMX2 2420-3010): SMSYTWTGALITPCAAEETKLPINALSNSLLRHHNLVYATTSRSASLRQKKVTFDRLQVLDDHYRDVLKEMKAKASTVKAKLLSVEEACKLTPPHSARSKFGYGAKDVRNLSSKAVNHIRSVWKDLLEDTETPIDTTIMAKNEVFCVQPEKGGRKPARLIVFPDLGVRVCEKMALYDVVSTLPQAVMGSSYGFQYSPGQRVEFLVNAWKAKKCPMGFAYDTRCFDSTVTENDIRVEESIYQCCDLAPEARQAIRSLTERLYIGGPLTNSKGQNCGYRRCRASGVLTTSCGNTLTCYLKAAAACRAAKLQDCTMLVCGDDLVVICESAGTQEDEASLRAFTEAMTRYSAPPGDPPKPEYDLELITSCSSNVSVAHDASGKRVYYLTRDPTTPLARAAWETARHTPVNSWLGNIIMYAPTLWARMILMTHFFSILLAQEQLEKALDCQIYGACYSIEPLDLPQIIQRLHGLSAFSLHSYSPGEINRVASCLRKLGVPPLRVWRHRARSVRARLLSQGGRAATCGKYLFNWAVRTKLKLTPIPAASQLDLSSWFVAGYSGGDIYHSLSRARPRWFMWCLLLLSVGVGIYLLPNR

In turn, `NCCC1CCN2CCn3c(c(C4CCCCC4)c4ccc(C(=O)O)cc43)-c3cccc1c32` (single isomer, unassigned) [Compound 302, 4-(2-Aminoethyl)-15-cyclohexyl-5,6,8,9-tetrahydro-4H-indolo[1′,2′:4,5][1,4]diazepino[6,7,1-ij]quinoline-12-carboxylic acid] displayed an IC50 of 2.68 nM.

Turning to `O=C(O)c1ccc2c(C3CCCCC3)c3n(c2c1)CCCn1cc(N2CCCCC2)c2cccc-3c21` [Compound 261], the IC50 was 3 nM. This IC50 and that of the molecule before are within 1.5-fold of each other.

Turning to `CC1(C)C(=O)N2CCCn3c(c(C4CCCCC4)c4ccc(C(=O)O)cc43)-c3cccc1c32` [Compound 265, 12-cyclohexyl-1,1-dimethyl-2-oxo-1,2,5,6-tetrahydro-4H-[1,5]diazocino[1,2-a:5,4,3-h′i′]diindole-9-carboxylic acid], 9 nM corresponded to half-maximal inhibition (IC50).

For `CCC1(CC)C(=O)N2CCCn3c(c(C4CCCCC4)c4ccc(C(=O)O)cc43)-c3cccc1c32` [Compound 266, 12-cyclohexyl-1,1-diethyl-2-oxo-1,2,5,6-tetrahydro-4H-[1,5]diazocino[1,2-a:5,4,3-h′i′]diindole-9-carboxylic acid], the IC50 came out at 11 nM. This IC50 and that of the molecule before are within 1.5-fold of each other.

In turn, `CCC1(CC)C(=O)N2CCCn3c(c(C4CCCCC4)c4ccc(C(=O)O)cc43)-c3ccc(F)c1c32` [Compound 267, 12-cyclohexyl-1,1-diethyl-15-fluoro-2-oxo-1,2,5,6-tetrahydro-4H-[1,5]diazocino[1,2-a:5,4,3-h′i′]diindole-9-carboxylic acid] came in with an IC50 of 10 nM.

`O=C(O)c1ccc2c(C3CCCCC3)c3n(c2c1)CCCN1C(=O)C2(CC2)c2cccc-3c21` [Compound 269, 12′-cyclohexyl-2′-oxo-5′,6′-dihydro-4′H-spiro[cyclopropane-1,1′-[1,5]diazocino[1,2-a:5,4,3-h′i′]diindole]-9′-carboxylic acid] registered an IC50 of 21 nM.

Take `O=C(O)c1ccc2c(C3CCCCC3)c3n(c2c1)CCCN1C(=O)Cc2cccc-3c21` [Compound 270, 12-cyclohexyl-2-oxo-1,2,5,6-tetrahydro-4H-[1,5]diazocino[1,2-a:5,4,3-h′i′]diindole-9-carboxylic acid]: half-maximal inhibition (IC50) was put at 26 nM.

Turning to `CC1(C)CN2CCCn3c(c(C4CCCCC4)c4ccc(C(=O)O)cc43)-c3cccc1c32` [Compound 271, 12-cyclohexyl-1,1-dimethyl-1,2,5,6-tetrahydro-4H-[1,5]diazocino[1,2-a:5,4,3-h′i′]diindole-9-carboxylic acid], inhibition was half-maximal at 15 nM (IC50). This IC50 is about 1.7-fold lower than that of the molecule before.

`CN1CCC2(C1)C(=O)N1CCCn3c(c(C4CCCCC4)c4ccc(C(=O)O)cc43)-c3cccc2c31` (stereo not drawn) [Compound 272, 12-cyclohexyl-1′-methyl-2-oxo-5,6-dihydro-4H-spiro[1,5-diazocino[1,2-a:5,4,3-h′i′]diindole-1,3′-pyrrolidine]-9-carboxylic acid] displayed an IC50 of 30 nM.

Regarding `NC1CCN2CCn3c(c(C4CCCCC4)c4ccc(C(=O)O)cc43)-c3cccc1c32` (stereo not drawn) [Compound 273, 4-Amino-15-cyclohexyl-5,6,8,9-tetrahydro-4H-indolo[1′,2′:4,5][1,4]diazepino[6,7,1-ij]quinoline-12-carboxylic acid], inhibition was half-maximal at 4.39 nM (IC50). This IC50 is about 6.8-fold lower than that of the molecule before.

As to `N[C@@H]1CCN2CCn3c(c(C4CCCCC4)c4ccc(C(=O)O)cc43)-c3cccc1c32` [Compound 274, (4R)-4-amino-15-cyclohexyl-5,6,8,9-tetrahydro-4H-indolo[1′,2′:4,5][1,4]diazepino[6,7,1-ij]quinoline-12-carboxylic acid], the IC50 is 2.45 nM.

The molecule `N[C@H]1CCN2CCn3c(c(C4CCCCC4)c4ccc(C(=O)O)cc43)-c3cccc1c32` [Compound 275] had a half-maximal inhibitory concentration (IC50) of 10.1 nM. Against the preceding molecule, the IC50 is about 4.1-fold higher.

`CC(C)CNC1CCN2CCn3c(c(C4CCCCC4)c4ccc(C(=O)O)cc43)-c3cccc1c32` (stereo not drawn) [Compound 278] yielded a half-inhibitory concentration (IC50) of 2.57 nM.

`O=C(O)c1ccc2c(C3CCCCC3)c3n(c2c1)CCN1CCC(NC2CCC2)c2cccc-3c21` (stereo not drawn) [Compound 279] yielded an IC50 of 4.02 nM. This IC50 lies about 1.6-fold higher than the previous one.

In the case of `COCCNC1CCN2CCn3c(c(C4CCCCC4)c4ccc(C(=O)O)cc43)-c3cccc1c32` (stereo not drawn) [Compound 283], the IC50 stood at 4.3 nM.

With `NCCNC1CCN2CCn3c(c(C4CCCCC4)c4ccc(C(=O)O)cc43)-c3cccc1c32` (stereo not drawn) [Compound 284], inhibition was half-maximal at 6.22 nM (IC50).

In turn, `CCN(CC)C1CCN2CCn3c(c(C4CCCCC4)c4ccc(C(=O)O)cc43)-c3cccc1c32` (stereo not drawn) [Compound 286] came in with an IC50 of 4.33 nM. The IC50 values of the last two molecules are within 1.5-fold of each other.

As to `O=C(O)c1ccc2c(C3CCCCC3)c3n(c2c1)CCN1CCC(N2CCCC2)c2cccc-3c21` (stereo not drawn) [Compound 287, 15-Cyclohexyl-4-pyrrolidin-1-yl-5,6,8,9-tetrahydro-4H-indolo[1′,2′:4,5][1,4]diazepino[6,7,1-ij]quinoline-12-carboxylic acid], the midpoint of inhibition, the IC50, lay at 2.71 nM. This IC50 lies about 1.6-fold lower than the previous one.

As to `O=C(O)c1ccc2c(C3CCCCC3)c3n(c2c1)CCN1CCC(N2CCCCC2)c2cccc-3c21` (stereo not drawn) [Compound 288], half-maximal inhibition (IC50) was put at 1.8 nM.

In turn, `O=C(O)c1ccc2c(C3CCCCC3)c3n(c2c1)CCN1CCC(N2CCOCC2)c2cccc-3c21` (stereo not drawn) [Compound 289] registered a half-maximal inhibitory concentration (IC50) of 2.03 nM.

Turning to `CCN(CC)[C@@H]1CCN2CCn3c(c(C4CCCCC4)c4ccc(C(=O)O)cc43)-c3cccc1c32` [Compound 290], the IC50 was found to be 1.62 nM.

`CCCN[C@@H]1CCN2CCn3c(c(C4CCCCC4)c4ccc(C(=O)O)cc43)-c3cccc1c32` [Compound 291] showed an IC50 of 1.94 nM.

Regarding `CC(C)N[C@@H]1CCN2CCn3c(c(C4CCCCC4)c4ccc(C(=O)O)cc43)-c3cccc1c32` [Compound 292, (4R)-15-cyclohexyl-4-(isopropylamino)-5,6,8,9-tetrahydro-4H-indolo[1′,2′:4,5][1,4]diazepino[6,7,1-ij]quinoline-12-carboxylic acid], the half-maximal inhibitory concentration (IC50) came out at 2.02 nM.

With `CC(=O)N[C@@H]1CCN2CCn3c(c(C4CCCCC4)c4ccc(C(=O)O)cc43)-c3cccc1c32` [Compound 293, (4R)-4-Acetamido-15-cyclohexyl-5,6,8,9-tetrahydro-4H-indolo[1′,2′:4,5][1,4]diazepino[6,7,1-ij]quinoline-12-carboxylic acid], the half-inhibitory concentration (IC50) is 1.71 nM.

`CC(C)(C)OC(=O)N[C@@H]1CCN2CCn3c(c(C4CCCCC4)c4ccc(C(=O)O)cc43)-c3cccc1c32` [Compound 294] returned an IC50 of 1.55 nM.

The molecule `CC(C)(C)OC(=O)N[C@H]1CCN2CCn3c(c(C4CCCCC4)c4ccc(C(=O)O)cc43)-c3cccc1c32` [Compound 295, (4S)-4-[(tert-butoxycarbonyl)amino]-15-cyclohexyl-5,6,8,9-tetrahydro-4H-indolo[1′,2′:4,5][1,4]diazepino[6,7,1-ij]quinoline-12-carboxylic acid] showed a 50% inhibitory concentration (IC50) of 8.47 nM.

`CC(C)(C)NC(=O)N[C@@H]1CCN2CCn3c(c(C4CCCCC4)c4ccc(C(=O)O)cc43)-c3cccc1c32` [Compound 296, (4R)-4-[(tert-Butylcarbamoyl)amino]-15-cyclohexyl-5,6,8,9-tetrahydro-4H-indolo[1′,2′:4,5][1,4]diazepino[6,7,1-ij]quinoline-12-carboxylic acid]: inhibition was half-maximal at 1.01 nM (IC50).

`O=C(NCCN1CCCC1)N[C@@H]1CCN2CCn3c(c(C4CCCCC4)c4ccc(C(=O)O)cc43)-c3cccc1c32` [Compound 297]: the IC50 turned out to be 1.67 nM.

With `N[C@@H]1CCN2CCn3c(c(C4CCCCC4)c4ccc(C(=O)NC5CC5)cc43)-c3cccc1c32` [Compound 298, (4R)-4-amino-15-cyclohexyl-N-cyclopropyl-5,6,8,9-tetrahydro-4H-indolo[1′,2′:4,5][1,4]diazepino[6,7,1-ij]quinoline-12-carboxamide], it took 7.17 nM to reach half-maximal inhibition (IC50).

Molecule `CN(C)S(=O)(=O)NC(=O)c1ccc2c(C3CCCCC3)c3n(c2c1)CCN1CC[C@@H](N)c2cccc-3c21` [Compound 299, (4R)-4-amino-15-cyclohexyl-N-[(dimethylamino)sulfonyl]-5,6,8,9-tetrahydro-4H-indolo[1′,2′:4,5][1,4]diazepino[6,7,1-ij]quinoline-12-carboxamide] showed an IC50 of 1 nM.

In turn, `CC(C)N1CCC[C@H]1C(=O)N[C@@H]1CCN2CCn3c(c(C4CCCCC4)c4ccc(C(=O)O)cc43)-c3cccc1c32` [Compound 300, (4R)-15-cyclohexyl-4-[(1-isopropyl-L-prolyl)amino]-5,6,8,9-tetrahydro-4H-indolo[1′,2′:4,5][1,4]diazepino[6,7,1-ij]quinoline-12-carboxylic acid] gave a 50% inhibitory concentration (IC50) of 0.769 nM.

On to `NCCC1CCN2CCn3c(c(C4CCCCC4)c4ccc(C(=O)O)cc43)-c3cccc1c32` (stereo not drawn) [Compound 301, 4-(2-aminoethyl)-15-cyclohexyl-5,6,8,9-tetrahydro-4H-indolo[1′,2′:4,5][1,4]diazepino[6,7,1-ij]quinoline-12-carboxylic acid], for which the IC50 is 3.35 nM.

As to `NCC[C@H]1CCN2CCn3c(c(C4CCCCC4)c4ccc(C(=O)O)cc43)-c3cccc1c32` [Compound 303], the IC50 was 6.81 nM.

Molecule `O=C(O)c1ccc2c(C3CCCCC3)c3n(c2c1)CCCn1cc(CNS(=O)(=O)C2CC2)c2cccc-3c21` [Compound 304, 12-Cyclohexyl-1-{[(cyclopropylsulfonyl)amino]methyl}-5,6-dihydro-4H-[1,5]diazocino[1,2-a:5,4,3-h′i′]diindole-9-carboxylic acid] showed an IC50 of 9 nM.

On to `CCN(CC)Cc1c(C(=O)N(C)C)n2c3c(cccc13)-c1c(C3CCCCC3)c3ccc(C(=O)O)cc3n1CCC2` [Compound 306], for which the IC50 amounted to 8 nM.

`CN(C)C(=O)c1c(CN2CCCCC2)c2cccc3c2n1CCCn1c-3c(C2CCCCC2)c2ccc(C(=O)O)cc21` [Compound 307]: 4 nM corresponded to half-maximal inhibition (IC50).
